# Source: PubChem BioAssay (NCI)
#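 Following 48 hours of exposure in 96-well plates, responses at five concentrations were used to interpolate endpoints linearly. The concentration for full growth arrest is given as TGI.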
# How the values were obtained:
# Experiment in all cases: growth of human tumour cells (NCI), 48 h
# M14 melanoma = tested on: M14 melanoma
# HOP-92 NSCLC = tested on: HOP-92 NSCLC
# OVCAR-5 ovarian = tested on: OVCAR-5 ovarian
# T-47D breast = tested on: T-47D breast
# NCI/ADR-RES ovarian = tested on: NCI/ADR-RES ovarian
# BT-549 breast = tested on: BT-549 breast
# ACHN renal = tested on: ACHN renal
# COLO 205 colon = tested on: COLO 205 colon
# PC-3 prostate = tested on: PC-3 prostate
# DU-145 prostate = tested on: DU-145 prostate
# SF-295 CNS = tested on: SF-295 CNS
# NCI-H522 lung = tested on: NCI-H522 lung
# SF-268 CNS = tested on: SF-268 CNS
# OVCAR-8 ovarian = tested on: OVCAR-8 ovarian
# LOX IMVI melanoma = tested on: LOX IMVI melanoma
# UO-31 renal = tested on: UO-31 renal
# KM12 colon = tested on: KM12 colon
# SF-539 CNS = tested on: SF-539 CNS
# SW-620 colon = tested on: SW-620 colon
# A498 renal = tested on: A498 renal
# EKVX NSCLC = tested on: EKVX NSCLC
# 786-0 renal = tested on: 786-0 renal
# SNB-75 CNS = tested on: SNB-75 CNS
# UACC-62 melanoma = tested on: UACC-62 melanoma
# SK-MEL-2 melanoma = tested on: SK-MEL-2 melanoma
# MOLT-4 leukemia = tested on: MOLT-4 leukemia
# SK-MEL-28 melanoma = tested on: SK-MEL-28 melanoma
# SK-OV-3 ovarian = tested on: SK-OV-3 ovarian
# NCI-H460 lung = tested on: NCI-H460 lung
# U251 CNS = tested on: U251 CNS
# HL-60(TB) leukemia = tested on: HL-60(TB) leukemia
# TK-10 renal = tested on: TK-10 renal
# OVCAR-4 ovarian = tested on: OVCAR-4 ovarian
# HCT-116 colon = tested on: HCT-116 colon
# MDA-N = tested on: MDA-N
# HCT-15 colon = tested on: HCT-15 colon
# SR leukemia = tested on: SR leukemia
# NCI-H23 lung = tested on: NCI-H23 lung
# UACC-257 melanoma = tested on: UACC-257 melanoma
# MDA-MB-231 breast = tested on: MDA-MB-231 breast
# NCI-H226 lung = tested on: NCI-H226 lung
# MCF7 breast = tested on: MCF7 breast
# OVCAR-3 ovarian = tested on: OVCAR-3 ovarian
# SNB-19 CNS = tested on: SNB-19 CNS
# HCC-2998 colon = tested on: HCC-2998 colon
# RXF 393 renal = tested on: RXF 393 renal
# K-562 leukemia = tested on: K-562 leukemia
# IGROV1 ovarian = tested on: IGROV1 ovarian
# A549 NSCLC = tested on: A549 NSCLC
# SN12C renal = tested on: SN12C renal
# HS 578T breast = tested on: HS 578T breast
# RPMI-8226 leukemia = tested on: RPMI-8226 leukemia
# SK-MEL-5 melanoma = tested on: SK-MEL-5 melanoma
# HT29 colon = tested on: HT29 colon
# HOP-62 NSCLC = tested on: HOP-62 NSCLC
# CAKI-1 renal = tested on: CAKI-1 renal
# CCRF-CEM leukemia = tested on: CCRF-CEM leukemia
# MDA-MB-435 = tested on: MDA-MB-435
# MALME-3M melanoma = tested on: MALME-3M melanoma
smiles,measurement,setting,value
Cn1c(-c2cccs2)cc(-c2cccs2)c1-c1ccco1,TGI,M14 melanoma,> 84.5 µM
same,TGI,HOP-92 NSCLC,> 100 µM
same,TGI,OVCAR-5 ovarian,> 100 µM
same,TGI,T-47D breast,12 µM
same,TGI,NCI/ADR-RES ovarian,> 100 µM
same,TGI,BT-549 breast,> 100 µM
same,TGI,ACHN renal,> 100 µM
same,TGI,COLO 205 colon,> 77.8 µM
same,TGI,PC-3 prostate,> 100 µM
same,TGI,DU-145 prostate,> 100 µM
same,TGI,SF-295 CNS,> 100 µM
same,TGI,NCI-H522 lung,88.2 µM
same,TGI,SF-268 CNS,> 100 µM
same,TGI,OVCAR-8 ovarian,> 100 µM
same,TGI,LOX IMVI melanoma,62.9 µM
same,TGI,UO-31 renal,> 100 µM
same,TGI,KM12 colon,22.9 µM
same,TGI,SF-539 CNS,> 100 µM
same,TGI,SW-620 colon,> 100 µM
same,TGI,A498 renal,> 79.2 µM
same,TGI,EKVX NSCLC,> 100 µM
same,TGI,786-0 renal,> 100 µM
same,TGI,SNB-75 CNS,> 100 µM
same,TGI,UACC-62 melanoma,> 100 µM
same,TGI,SK-MEL-2 melanoma,> 100 µM
same,TGI,MOLT-4 leukemia,> 100 µM
same,TGI,SK-MEL-28 melanoma,> 100 µM
same,TGI,SK-OV-3 ovarian,> 100 µM
same,TGI,NCI-H460 lung,> 100 µM
same,TGI,U251 CNS,> 100 µM
same,TGI,HL-60(TB) leukemia,> 75.7 µM
same,TGI,TK-10 renal,> 100 µM
same,TGI,OVCAR-4 ovarian,5.07 µM
same,TGI,HCT-116 colon,> 100 µM
same,TGI,MDA-N,> 100 µM
same,TGI,HCT-15 colon,> 100 µM
same,TGI,SR leukemia,> 100 µM
same,TGI,NCI-H23 lung,> 25 µM
same,TGI,UACC-257 melanoma,> 100 µM
same,TGI,MDA-MB-231 breast,> 100 µM
same,TGI,NCI-H226 lung,> 100 µM
same,TGI,MCF7 breast,5.41 µM
same,TGI,OVCAR-3 ovarian,> 100 µM
same,TGI,SNB-19 CNS,> 100 µM
same,TGI,HCC-2998 colon,> 100 µM
same,TGI,RXF 393 renal,> 82.7 µM
same,TGI,K-562 leukemia,> 100 µM
same,TGI,IGROV1 ovarian,> 100 µM
same,TGI,A549 NSCLC,> 100 µM
same,TGI,SN12C renal,> 100 µM
same,TGI,HS 578T breast,> 91.7 µM
same,TGI,RPMI-8226 leukemia,> 100 µM
same,TGI,SK-MEL-5 melanoma,> 100 µM
same,TGI,HT29 colon,> 100 µM
same,TGI,HOP-62 NSCLC,> 100 µM
same,TGI,CAKI-1 renal,> 38.1 µM
same,TGI,CCRF-CEM leukemia,> 100 µM
Cc1ccc(N=N/C(=N/NC(=O)c2cc(Cl)ccc2C(=O)c2ccccc2)c2ccc(N(CCC#N)CCC#N)cc2C)cc1,TGI,M14 melanoma,41 µM
same,TGI,OVCAR-5 ovarian,> 100 µM
same,TGI,T-47D breast,27.9 µM
same,TGI,NCI/ADR-RES ovarian,62.1 µM
same,TGI,BT-549 breast,> 100 µM
same,TGI,ACHN renal,> 100 µM
same,TGI,COLO 205 colon,27.7 µM
same,TGI,PC-3 prostate,47.2 µM
same,TGI,DU-145 prostate,51.8 µM
same,TGI,MDA-MB-435,82 µM
same,TGI,SF-295 CNS,86.9 µM
same,TGI,MALME-3M melanoma,32.4 µM
same,TGI,NCI-H522 lung,19.9 µM
same,TGI,SF-268 CNS,> 100 µM
same,TGI,OVCAR-8 ovarian,29.9 µM
same,TGI,UO-31 renal,> 100 µM
same,TGI,KM12 colon,> 100 µM
same,TGI,SW-620 colon,> 100 µM
same,TGI,EKVX NSCLC,84.7 µM
same,TGI,786-0 renal,53.7 µM
same,TGI,SNB-75 CNS,> 100 µM
same,TGI,UACC-62 melanoma,36.2 µM
same,TGI,SK-MEL-2 melanoma,28.2 µM
same,TGI,MOLT-4 leukemia,26.2 µM
same,TGI,SK-MEL-28 melanoma,> 100 µM
same,TGI,SK-OV-3 ovarian,40 µM
same,TGI,NCI-H460 lung,13.6 µM
same,TGI,U251 CNS,> 100 µM
same,TGI,TK-10 renal,> 100 µM
same,TGI,OVCAR-4 ovarian,82.4 µM
same,TGI,HCT-116 colon,31.5 µM
same,TGI,MDA-N,> 100 µM
same,TGI,HCT-15 colon,57.8 µM
same,TGI,NCI-H23 lung,> 100 µM
same,TGI,UACC-257 melanoma,39.4 µM
same,TGI,MDA-MB-231 breast,24.8 µM
same,TGI,NCI-H226 lung,38 µM
same,TGI,MCF7 breast,15.2 µM
same,TGI,OVCAR-3 ovarian,16.4 µM
same,TGI,SNB-19 CNS,> 100 µM
same,TGI,HCC-2998 colon,43.9 µM
same,TGI,RXF 393 renal,7.24 µM
same,TGI,K-562 leukemia,> 100 µM
same,TGI,IGROV1 ovarian,41.3 µM
same,TGI,A549 NSCLC,58.7 µM
same,TGI,SN12C renal,87.7 µM
same,TGI,HS 578T breast,> 100 µM
same,TGI,RPMI-8226 leukemia,96.9 µM
same,TGI,SK-MEL-5 melanoma,33.6 µM
same,TGI,HT29 colon,39.9 µM
same,TGI,HOP-62 NSCLC,> 100 µM
same,TGI,CAKI-1 renal,79.3 µM
same,TGI,CCRF-CEM leukemia,13.1 µM
c1ccc(P(CCP(c2ccccn2)c2ccccn2)c2ccccc2)cc1,TGI,M14 melanoma,> 100 µM
same,TGI,HOP-92 NSCLC,> 69.9 µM
same,TGI,OVCAR-5 ovarian,> 100 µM
same,TGI,T-47D breast,> 100 µM
same,TGI,NCI/ADR-RES ovarian,> 100 µM
same,TGI,BT-549 breast,> 100 µM
same,TGI,ACHN renal,> 100 µM
same,TGI,COLO 205 colon,37.8 µM
same,TGI,PC-3 prostate,72.6 µM
same,TGI,DU-145 prostate,> 100 µM
same,TGI,MDA-MB-435,> 100 µM
same,TGI,SF-295 CNS,> 56.6 µM
same,TGI,MALME-3M melanoma,> 100 µM
same,TGI,OVCAR-8 ovarian,> 100 µM
same,TGI,LOX IMVI melanoma,> 100 µM
same,TGI,UO-31 renal,> 100 µM
same,TGI,KM12 colon,> 100 µM
same,TGI,SF-539 CNS,> 100 µM
same,TGI,SW-620 colon,> 100 µM
same,TGI,A498 renal,> 100 µM
same,TGI,EKVX NSCLC,9 µM
same,TGI,786-0 renal,> 100 µM
same,TGI,SNB-75 CNS,54 µM
same,TGI,UACC-62 melanoma,> 100 µM
same,TGI,SK-MEL-2 melanoma,66.3 µM
same,TGI,MOLT-4 leukemia,> 100 µM
same,TGI,SK-MEL-28 melanoma,> 100 µM
same,TGI,SK-OV-3 ovarian,> 100 µM
same,TGI,NCI-H460 lung,> 84.9 µM
same,TGI,U251 CNS,> 100 µM
same,TGI,HL-60(TB) leukemia,78.2 µM
same,TGI,TK-10 renal,> 100 µM
same,TGI,OVCAR-4 ovarian,> 100 µM
same,TGI,HCT-116 colon,> 100 µM
same,TGI,MDA-N,> 100 µM
same,TGI,HCT-15 colon,> 100 µM
same,TGI,SR leukemia,> 100 µM
same,TGI,NCI-H23 lung,> 100 µM
same,TGI,UACC-257 melanoma,> 100 µM
same,TGI,NCI-H226 lung,> 100 µM
same,TGI,MCF7 breast,> 100 µM
same,TGI,SNB-19 CNS,> 100 µM
same,TGI,HCC-2998 colon,> 100 µM
same,TGI,RXF 393 renal,98 µM
same,TGI,K-562 leukemia,> 100 µM
same,TGI,A549 NSCLC,> 100 µM
same,TGI,SN12C renal,> 100 µM
same,TGI,HS 578T breast,> 100 µM
same,TGI,RPMI-8226 leukemia,40.6 µM
same,TGI,SK-MEL-5 melanoma,> 100 µM
same,TGI,HT29 colon,> 100 µM
same,TGI,HOP-62 NSCLC,> 100 µM
same,TGI,CAKI-1 renal,> 100 µM
